“Also recorded” adds a separate entry of the source.
Columns and labels:
human KOR [1] = molecular target: T1, human KOR (Homo sapiens, UniProt P41145); format: binding
[2] = test system: chloroquine phosphate-induced pruritus in mice; set-up: species or system C57BL/6J mice; conditions: mouse, in vivo
human KOR [3] = molecular target: T1, human KOR; format: cell-based

COC(=O)[C@@H]1C[C@H](OC(C)=O)C(=O)[C@@H]2[C@H]3C[C@@H](c4ccoc4)OC(=O)[C@@H]3CC[C@]21C [20-nor-SalA, 20-nor-salvinorin A]
affinity for the κ-OR (radioligand competition binding, Ki) (human KOR [1]): high affinity | suppression of itch (scratching) response [2]: suppressed the itch response; also recorded: similarly effective to SalA and another conventional agonist (U50,488H) | KOR agonist potency (human KOR [3]): high potency | efficacy in G protein signaling (inhibition of cAMP accumulation) (human KOR [3]): full agonist

COC(=O)[C@@H]1C[C@H](OC(C)=O)C(=O)[C@H]2[C@@]1(C)CC[C@H]1C(=O)O[C@H](c3ccoc3)C[C@]21C [SalA, salvinorin A, reference compound]
suppression of itch (scratching) response [2]: suppressed the itch response | efficacy in G protein signaling (inhibition of cAMP accumulation) (human KOR [3]): slightly higher affinity and efficacy

Source: patent US11512075B2 (priority 2017, dated 2022)
